Measured values: patent US20130217702A1 (Richter Gedeon Nyrt., priority 2010, published 2013)
Where a name gives a salt, the structure may show the parent alone.

Columns and labels:
[1] = molecular target: T1, recombinant human B1 receptors (Homo sapiens, UniProt P46663); assay: Functional assay: antagonist potency by cytosolic calcium measurement (plate reader fluorimeter) in CHO-B1 cells, agonist LysDABK; assay type: cell-based; conditions: CHO-B1 cells, inhibition of LysDABK (EC80)-evoked [Ca2+]i elevation; read-out: B1 func.
T1 construct: host or cells: CHO (CHO-B1)
T1 sequence (P46663 1-353): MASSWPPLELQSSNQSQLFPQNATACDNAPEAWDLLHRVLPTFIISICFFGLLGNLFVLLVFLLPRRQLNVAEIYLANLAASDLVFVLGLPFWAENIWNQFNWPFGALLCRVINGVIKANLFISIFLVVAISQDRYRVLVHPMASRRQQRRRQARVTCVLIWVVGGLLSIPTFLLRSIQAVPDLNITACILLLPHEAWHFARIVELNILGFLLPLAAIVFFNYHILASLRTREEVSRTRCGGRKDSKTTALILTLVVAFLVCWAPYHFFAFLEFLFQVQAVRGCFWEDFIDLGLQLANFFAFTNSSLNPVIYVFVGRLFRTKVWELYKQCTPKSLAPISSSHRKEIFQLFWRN
In short: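 IC50 is the concentration giving half-maximal inhibition of the LysDABK (EC80) calcium response, fitted from at least three experiments. CHO cells stably expressing human B1 were dye-loaded, exposed to compound for 20-25 min, then read by fluo-4 fluorescence (ΔF/F) at 37 °C.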

[2] = molecular target: T2, human recombinant bradykinin B1 receptor (Homo sapiens, UniProt P46663); assay: Human recombinant bradykinin B1 receptor competitive radioligand binding; conditions: hB1 expressed in CHO cells, [3H]-[Des-Arg10] Kallidin radioligand; read-out: B1 binding
T2 construct: host or cells: CHO cells, clone hB1-A5
T2 sequence (P46663 1-353): T1 sequence (P46663 1-353)
In short: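 Competition radioligand binding on CHO-expressed hB1 membranes, using [3,4-prolyl-3,4-^3H(N)]-[Des-Arg^10] Kallidin as tracer, 15 min at 25° C. Excess Lys-des-Arg^9-Bradykinin (10 μM) set nonspecific binding. Sigmoidal fits of at least seven concentrations gave IC50, converted to Ki via Cheng-Prusoff; KD from Scatchard.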

SMILES	IC50 [1]	Ki [2]
Cc1ccc(C(=O)NC2(C(=O)NCc3ccc(-n4c(-c5noc(C)n5)c(Cl)c5ccccc54)cc3)CC2)c(Cl)n1 [Example 156, 2-Chloro-N-(1-{4-[3-chloro-2-(5-methyl-[1,2,4]oxadiazol-3-yl)-indol-1-yl]-benzylcarbamoyl}-cyclopropyl)-6-methyl-nicotinamide]	< 20 nM	< 20 nM
COc1cc(C(=O)NC2(C(=O)NCc3ccc(-n4c(-c5nc(C)no5)cc5ccccc54)cn3)CC2)on1 [Example 56, 3-Methoxy-isoxazole-5-carboxylic acid [1-({5-[2-(3-methyl-[1,2,4]oxadiazol-5-yl)-indol-1-yl]-pyridin-2-ylmethyl}-carbamoyl)-cyclopropyl]-amide]	100 to 500 nM	100 to 500 nM
Cc1nc(-c2c(Cl)c3ccccc3n2-c2ccc([C@@H](C)NC(=O)C3(NC(=O)C(F)(F)F)CC3)c(F)c2)no1 [Example 190, 1-(2,2,2-Trifluoro-acetylamino)-cyclopropanecarboxylic acid ((R)-1-{4-[3-chloro-2-(5-methyl-[1,2,4]oxadiazol-3-yl)-indol-1-yl]-2-fluoro-phenyl}-ethyl)-amide]	< 20 nM	< 20 nM
Cc1nc(-c2c(Cl)c3ccccc3n2-c2ccc(CNC(=O)C3(NC(=O)c4cccnc4)CC3)cc2)no1 [Example 158, N-(1-{4-[3-Chloro-2-(5-methyl-[1,2,4]oxadiazol-3-yl)-indol-1-yl]-benzylcarbamoyl}-cyclopropyl)-nicotinamide]	< 20 nM	< 20 nM
Cc1noc(-c2c(Cl)c3ccccc3n2-c2ccc(CNC(=O)C3(NC(=O)CC(F)(F)F)CC3)cc2)n1 [Example 112, 1-(3,3,3-Trifluoro-propionylamino)-cyclopropanecarboxylic acid 4-[3-chloro-2-(3-methyl-[1,2,4]oxadiazol-5-yl)-indol-1-yl]-benzylamide]	< 20 nM	< 20 nM
Cc1nc(-c2c(Cl)c3ccccc3n2-c2ccc(CNC(=O)C3(NC(=O)c4cccnc4C)CC3)cc2)no1 [Example 155, N-(1-{4-[3-Chloro-2-(5-methyl-[1,2,4]oxadiazol-3-yl)-indol-1-yl]-benzylcarbamoyl}-cyclopropyl)-2-methyl-nicotinamide]	20 to 100 nM	20 to 100 nM
Cc1nc(-c2c(Cl)c3ccccc3n2-c2ccc(CNC(=O)C3(NC(=O)c4cccc(N)c4)CC3)cc2)no1 [Example 186, 3-Amino-N-(1-{4-[3-chloro-2-(5-methyl-[1,2,4]oxadiazol-3-yl)-indol-1-yl]-benzylcarbamoyl}-cyclopropyl)-benzamide hydrochloride]	< 20 nM	< 20 nM
NC(=O)c1c(Cl)c2ccccc2n1-c1ccc(CNC(=O)C2(NC(=O)C(F)(F)F)CC2)cc1 [Example 187, 3-Chloro-1-[4-({[1-(2,2,2-trifluoro-acetylamino)-cyclopropanecarbonyl]-amino}-methyl)-phenyl]-1H-indole-2-carboxylic acid amide]	20 to 100 nM	100 to 500 nM
N#Cc1cc2ccccc2n1-c1ccc(CNC(=O)C2(NC(=O)c3cncc(C(F)(F)F)c3)CC2)cc1 [Example 84, N-{1-[4-(2-Cyano-indol-1-yl)-benzylcarbamoyl]-cyclopropyl}-5-trifluoromethyl-nicotinamide]	< 20 nM	< 20 nM
Cc1nc(-c2c(Cl)c3ccccc3n2-c2ccc(CNC(=O)C3(NC(=O)c4ccnc(F)c4)CC3)c(F)c2)no1 [Example 109, N-(1-{4-[3-Chloro-2-(5-methyl-[1,2,4]oxadiazol-3-yl)-indol-1-yl]-2-fluoro-benzylcarbamoyl}-cyclopropyl)-2-fluoro-isonicotinamide]	< 20 nM	< 20 nM
Cc1nc(-c2c(Cl)c3ccccc3n2-c2ccc(CNC(=O)C3(NC(=O)c4cnn(C)c4)CC3)cc2)no1 [Example 121, 1-Methyl-1H-pyrazole-4-carboxylic acid (1-{4-[3-chloro-2-(5-methyl-[1,2,4]oxadiazol-3-yl)-indol-1-yl]-benzylcarbamoyl}-cyclopropyl)-amide]	20 to 100 nM	< 20 nM
Cc1nc(-c2c(Cl)c3ccccc3n2-c2ccc(CNC(=O)C3(NC(=O)c4cccc(=O)[nH]4)CC3)cc2)no1 [Example 162, 6-Oxo-1,6-dihydro-pyridine-2-carboxylic acid (1-{4-[3-chloro-2-(5-methyl-[1,2,4]oxadiazol-3-yl)-indol-1-yl]-benzylcarbamoyl}-cyclopropyl)-amide]	< 20 nM	< 20 nM
COc1cc(C(=O)NC2(C(=O)NCc3ccc(-n4c(-c5nc(C)no5)cc5ccccc54)cc3)CC2)on1 [Example 196, 3-Methoxy-isoxazole-5-carboxylic acid (1-{4-[2-(3-methyl-[1,2,4]oxadiazol-5-yl)-indol-1-yl]-benzylcarbamoyl}-cyclopropyl)-amide]	20 to 100 nM	< 20 nM
Cc1nc(-c2c(Cl)c3ccccc3n2-c2ccc(CNC(=O)C3(NC(=O)c4cc(F)cc(C(F)(F)F)c4)CC3)cc2)no1 [Example 94, N-(1-{4-[3-Chloro-2-(5-methyl-[1,2,4]oxadiazol-3-yl)-indol-1-yl]-benzylcarbamoyl}-cyclopropyl)-3-fluoro-5-trifluoromethyl-benzamide]	< 20 nM	< 20 nM
Cc1nc(-c2c(Cl)c3ccccc3n2-c2ccc(CNC(=O)C3(NC(=O)c4scnc4C)CC3)cc2)no1 [Example 149, 4-Methyl-thiazole-5-carboxylic acid (1-{4-[3-chloro-2-(5-methyl-[1,2,4]oxadiazol-3-yl)-indol-1-yl]-benzylcarbamoyl}-cyclopropyl)-amide]	20 to 100 nM	< 20 nM
Cc1nc(-c2c(Cl)c3ccccc3n2-c2ccc(CNC(=O)C3(NC(=O)c4cccc(C(F)(F)F)c4)CC3)cc2)no1 [Example 177, N-(1-{4-[3-Chloro-2-(5-methyl-[1,2,4]oxadiazol-3-yl)-indol-1-yl]-benzylcarbamoyl}-cyclopropyl)-3-trifluoromethyl-benzamide]	< 20 nM	20 to 100 nM
Cc1nc(-c2c(Cl)c3ccccc3n2-c2ccc(CNC(=O)C3(NC(=O)c4cncnc4)CC3)cc2)no1 [Example 166, Pyrimidine-5-carboxylic acid (1-{4-[3-chloro-2-(5-methyl-[1,2,4]oxadiazol-3-yl)indol-1-yl]-benzylcarbamoyl}-cyclopropyl)-amide]	< 20 nM	< 20 nM
Cc1nc(-c2c(Cl)c3ccccc3n2-c2ccc(CNC(=O)C3(NC(=O)c4cc(C5CC5)on4)CC3)c(F)c2)no1 [Example 110, 5-Cyclopropyl-isoxazole-3-carboxylic acid (1-{4-[3-chloro-2-(5-methyl-[1,2,4]oxadiazol-3-yl)-indol-1-yl]-2-fluoro-benzylcarbamoyl}-cyclopropyl)-amide]	< 20 nM	< 20 nM
Cc1nc(-c2c(Cl)c3ccccc3n2-c2ccc([C@@H](C)NC(=O)C3(NC(=O)C(F)(F)F)CC3)cc2)no1 [Example 40, (R)-1-(2,2,2-Trifluoro-acetylamino)-cyclopropanecarboxylic acid (1-{4-[3-chloro-2-(5-methyl-[1,2,4]oxadiazol-3-yl)-indol-1-yl]-phenyl}-ethyl)-amide]	< 20 nM	< 20 nM
COc1ccc2c(c1)c(Cl)c(-c1noc(C)n1)n2-c1ccc(CNC(=O)C2(NC(=O)c3cc(OC)no3)CC2)cc1 [Example 64, 3-Methoxy-isoxazole-5-carboxylic acid (1-{4-[3-chloro-5-methoxy-2-(5-methyl-[1,2,4]oxadiazol-3-yl)-indol-1-yl]-benzylcarbamoyl}-cyclopropyl)-amide]	< 20 nM	< 20 nM
COc1cc(C(=O)NC2(C(=O)NCc3ccc(-n4c(-c5noc(C)n5)c(Cl)c5cc(F)ccc54)cc3)CC2)on1 [Example 67, 3-Methoxy-isoxazole-5-carboxylic acid (1-{4-[3-chloro-5-fluoro-2-(5-methyl-[1,2,4]oxadiazol-3-yl)-indol-1-yl]-benzylcarbamoyl}-cyclopropyl)-amide]	< 20 nM	< 20 nM
COc1cc(C(=O)NC2(C(=O)NCc3ccc(-n4c(-c5noc(C)n5)cc5cc(F)ccc54)cc3F)CC2)on1 [Example 133, 3-Methoxy-isoxazole-5-carboxylic acid (1-{2-fluoro-4-[5-fluoro-2-(5-methyl-[1,2,4]oxadiazol-3-yl)-indol-1-yl]-benzylcarbamoyl}-cyclopropyl)-amide]	< 20 nM	< 20 nM
Cc1noc(-c2cc3ccccc3n2-c2ccc(CNC(=O)C3(NC(=O)c4cncc(C(F)(F)F)c4)CC3)cc2)n1 [Example 83, N-(1-{4-[2-(3-Methyl-[1,2,4]oxadiazol-5-yl)-indol-1-yl]-benzylcarbamoyl}-cyclopropyl)-5-trifluoromethyl-nicotinamide]	< 20 nM	< 20 nM
Cc1nc(-c2c(Cl)c3ccccc3n2-c2ccc(CNC(=O)C3(NC(=O)c4cccc(C#N)c4)CC3)cc2)no1 [Example 146, N-(1-{4-[3-Chloro-2-(5-methyl-[1,2,4]oxadiazol-3-yl)-indol-1-yl]-benzylcarbamoyl}-cyclopropyl)-3-cyano-benzamide]	< 20 nM	< 20 nM
